From publication PMC10247784, “Physiological activation of human and mouse bitter taste receptors by bile acids” (Communications Biology, 2023)
Where “and” joins values, the source holds several entries; their conditions need not be identical. Equal values may be shown once.

Biological target: T1, human TAS2R4 (Homo sapiens, UniProt Q9NYW5)
T1 construct: expressed in transfected cells; host or cells: HEK293T-Gα16gust44
T1 sequence (Q9NYW5 1-299): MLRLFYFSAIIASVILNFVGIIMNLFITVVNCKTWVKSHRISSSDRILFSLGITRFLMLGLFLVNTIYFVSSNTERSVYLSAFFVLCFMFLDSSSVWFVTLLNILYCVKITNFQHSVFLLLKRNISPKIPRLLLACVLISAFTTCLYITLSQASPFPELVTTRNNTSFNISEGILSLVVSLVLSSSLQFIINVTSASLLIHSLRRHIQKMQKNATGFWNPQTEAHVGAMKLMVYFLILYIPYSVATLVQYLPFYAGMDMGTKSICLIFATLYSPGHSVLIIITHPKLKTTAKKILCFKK
Experiment: Calcium imaging assay (FLIPR), HEK293T-Gα16gust44 cells transfected with human TAS2R4
Type: cell-based
Description: This set of bile acids was chosen because of their commercial availability in high purities, their diversity within the class of bile acids and their previous detection and quantitation in human blood. Stock solutions were prepared in DMSO.
As basal growth medium for the HEK293T-Gα16gust44 cell line[17],[59] served Dulbecco’s modified eagle medium (DMEM) (Thermo Fisher Scientific, Darmstadt, Germany) supplemented with 10 % fetal bovine serum (Sigma-Aldrich, Steinheim, Germany), 2 mM L-glutamine (Sigma-Aldrich, Steinheim, Germany), 100 units/ml penicillin (Sigma Aldrich, Steinheim, Germany) and 100 µg/ml streptomycin (Sigma Aldrich, Steinheim, Germany). Growth conditions were 37 °C, 5 % CO2 and saturated air-humidity[60].
HEK293T-Gα16gust44 cells were seeded on poly-D-lysine (10 µg/ml) coated 96-well plates to reach a confluence of 40-60 % the next day. For transient transfection 150 ng of plasmid DNA containing the receptor of interest and 0.3 µl lipofectamine 2000 (Thermo Fisher Scientific, Darmstadt, Germany) per well were used and transfection took place according to the manual of lipofectamine 2000. […] The empty vector DNA (mock) was transfected as negative control[14],[41].
Cells were loaded using the calcium-sensitive fluorescent dye Fluo-4-AM (Abcam, Cambridge, Great Britain) in the presence of 2.5 mM probenecid (Sigma-Aldrich, Steinheim, Germany) the day after transfection[13],[41]. 1 h after loading, cells were washed with C1 buffer using a BioTek Cell Washer, incubated in the dark for half an hour and washed again. For automated agonist application and measurement of fluorescence changes, a FLIPR^TETRA device (Molecular Devices, San José, United States) was used. Viability of cells was tested by application of 100 nM Somatostatin 14 (Bachem, Bubendorf, Switzerland)[42].
Measured data were negative control corrected by subtracting the signal of the mock-transfected cells and exported to Microsoft Excel using the FLIPR software ScreenWorks 4.2. In Microsoft Excel software, standardization of maximum fluorescence intensities to the basal fluorescence and normalization to the buffer-only control was done to calculate the relative fluorescence changes (ΔF/F).
Initial screening experiments performed in duplicate wells were confirmed by at least one replication and representative traces were selected for display. All dose-response relationships were determined by three independent experiments (biological replicates) performed in duplicates (technical replicates). Threshold concentrations, defined as lowest substance concentrations leading to statistically significant elevated fluorescence changes in receptor-transfected cells compared with empty vector-transfected cells, were determined using SigmaPlot with Student’s t-test to evaluate statistical significance (p < 0.01).

C[C@H](CCC(=O)NCCS(=O)(=O)O)[C@H]1CC[C@H]2[C@@H]3[C@H](O)C[C@@H]4C[C@H](O)CC[C@]4(C)[C@H]3C[C@H](O)[C@]12C [Taurocholic Acid, taurocholic acid]
Efficacy = maximal amplitude (ΔF/F) (TAS2R4, bile acids, mean): 0.1496 | Efficacy (maximal amplitude ΔF/F), individual data points (TAS2R4, bile acids, single replicates, listed as TCA): 0.127 and 0.1657 and 0.1561 | Δ F/F (TAS2R4, conc. 0,01 mM): 0.0134 | Δ F/F (TAS2R4, conc. 0,1 mM): 0.09538 | Δ F/F (TAS2R4, conc. 0,03 mM): 0.04001 | Δ F/F (TAS2R4, conc. 0,3 mM): 0.1496 | Δ F/F (TAS2R4, conc. 0,001 mM): 0.005857 | Δ F/F (TAS2R4, conc. 0,003 mM): 0.007034 | RLU, fluorescence trace (Time (s) 0): 0 RLU | RLU, fluorescence trace (Time (s) 2): -24.6054 RLU | RLU, fluorescence trace (Time (s) 4): 12.8274 RLU | RLU, fluorescence trace (Time (s) 6): 3.789 RLU | RLU, fluorescence trace (Time (s) 8): -20.122 RLU | RLU, fluorescence trace (Time (s) 12): 7.77 RLU | RLU, fluorescence trace (Time (s) 14): -34.8945 RLU | RLU, fluorescence trace (Time (s) 16): -37.677 RLU | RLU, fluorescence trace (Time (s) 18): -48.5281 RLU | RLU, fluorescence trace (Time (s) 18.766 (TCA, TLCA: 18.782)): 30.085 RLU | RLU, fluorescence trace (Time (s) 20.781 (TCA, TLCA: 20.782)): 9.231 RLU | RLU, fluorescence trace (Time (s) 22.781 (TCA, TLCA: 22.782)): 3.151 RLU | RLU, fluorescence trace (Time (s) 24.781 (TCA, TLCA: 24.782)): 34.1327 RLU | RLU, fluorescence trace (Time (s) 26.781 (TCA, TLCA: 26.782)): 57.6073 RLU | RLU, fluorescence trace (Time (s) 28.781 (TCA, TLCA: 28.782)): 122.11 RLU | RLU, fluorescence trace (Time (s) 30.781 (TCA, TLCA: 30.782)): 164.035 RLU | RLU, fluorescence trace (Time (s) 32.781 (TCA, TLCA: 32.782)): 242.016 RLU | RLU, fluorescence trace (Time (s) 34.781 (TCA, TLCA: 34.782)): 272.716 RLU | RLU, fluorescence trace (Time (s) 36.781 (TCA, TLCA: 36.782)): 320.809 RLU | RLU, fluorescence trace (Time (s) 38.781 (TCA, TLCA: 38.782)): 384.052 RLU | RLU, fluorescence trace (Time (s) 40.781 (TCA, TLCA: 40.782)): 404.135 RLU | RLU, fluorescence trace (Time (s) 42.781 (TCA, TLCA: 42.782)): 433.94 RLU | RLU, fluorescence trace (Time (s) 44.781 (TCA, TLCA: 44.782)): 475.477 RLU | RLU, fluorescence trace (Time (s) 46.781 (TCA, TLCA: 46.782)): 493.347 RLU | RLU, fluorescence trace (Time (s) 48.781 (TCA, TLCA: 48.782)): 501.503 RLU | RLU, fluorescence trace (Time (s) 50.781 (TCA, TLCA: 50.782)): 547.521 RLU | RLU, fluorescence trace (Time (s) 52.781 (TCA, TLCA: 52.782)): 553.791 RLU | RLU, fluorescence trace (Time (s) 54.781 (TCA, TLCA: 54.782)): 588.235 RLU | RLU, fluorescence trace (Time (s) 56.781 (TCA, TLCA: 56.782)): 548.835 RLU | RLU, fluorescence trace (Time (s) 58.781 (TCA, TLCA: 58.782)): 588.475 RLU | RLU, fluorescence trace (Time (s) 60.781 (TCA, TLCA: 60.782)): 601.608 RLU | RLU, fluorescence trace (Time (s) 62.781 (TCA, TLCA: 62.782)): 626.215 RLU | RLU, fluorescence trace (Time (s) 64.781 (TCA, TLCA: 64.782)): 626.188 RLU | RLU, fluorescence trace (Time (s) 66.781 (TCA, TLCA: 66.782)): 619.641 RLU | RLU, fluorescence trace (Time (s) 68.781 (TCA, TLCA: 68.782)): 624.108 RLU | RLU, fluorescence trace (Time (s) 70.781 (TCA, TLCA: 70.782)): 638.032 RLU | RLU, fluorescence trace (Time (s) 72.781 (TCA, TLCA: 72.782)): 646.123 RLU | RLU, fluorescence trace (Time (s) 74.781 (TCA, TLCA: 74.782)): 657.793 RLU | RLU, fluorescence trace (Time (s) 76.781 (TCA, TLCA: 76.782)): 666.37 RLU | RLU, fluorescence trace (Time (s) 78.781 (TCA, TLCA: 78.782)): 678.287 RLU | RLU, fluorescence trace (Time (s) 80.781 (TCA, TLCA: 80.782)): 665.284 RLU | RLU, fluorescence trace (Time (s) 82.781 (TCA, TLCA: 82.782)): 655.873 RLU | RLU, fluorescence trace (Time (s) 84.781 (TCA, TLCA: 84.782)): 679.941 RLU | RLU, fluorescence trace (Time (s) 86.781 (TCA, TLCA: 86.782)): 648.406 RLU | RLU, fluorescence trace (Time (s) 88.781 (TCA, TLCA: 88.782)): 644.228 RLU | RLU, fluorescence trace (Time (s) 90.781 (TCA, TLCA: 90.782)): 650.88 RLU | RLU, fluorescence trace (Time (s) 92.781 (TCA, TLCA: 92.782)): 631.638 RLU | RLU, fluorescence trace (Time (s) 94.781 (TCA, TLCA: 94.782)): 665.026 RLU | RLU, fluorescence trace (Time (s) 96.781 (TCA, TLCA: 96.782)): 673.234 RLU | RLU, fluorescence trace (Time (s) 98.781 (TCA, TLCA: 98.782)): 653.956 RLU | RLU, fluorescence trace (Time (s) 100.781 (TCA, TLCA: 100.782)): 661.771 RLU | RLU, fluorescence trace (Time (s) 102.781 (TCA, TLCA: 102.782)): 636.296 RLU | RLU, fluorescence trace (Time (s) 104.781 (TCA, TLCA: 104.782)): 641.127 RLU | RLU, fluorescence trace (Time (s) 106.781 (TCA, TLCA: 106.782)): 615.791 RLU | RLU, fluorescence trace (Time (s) 108.781 (TCA, TLCA: 108.782)): 618.091 RLU | RLU, fluorescence trace (Time (s) 110.781 (TCA, TLCA: 110.782)): 644.691 RLU | RLU, fluorescence trace (Time (s) 112.781 (TCA, TLCA: 112.782)): 640.87 RLU | RLU, fluorescence trace (Time (s) 114.781 (TCA, TLCA: 114.782)): 609.041 RLU | RLU, fluorescence trace (Time (s) 116.781 (TCA, TLCA: 116.782)): 616.307 RLU | RLU, fluorescence trace (Time (s) 118.781 (TCA, TLCA: 118.782)): 584.502 RLU | RLU, fluorescence trace (Time (s) 120.781 (TCA, TLCA: 120.782)): 602.866 RLU | RLU, fluorescence trace (Time (s) 122.781 (TCA, TLCA: 122.782)): 581.164 RLU | RLU, fluorescence trace (Time (s) 124.781 (TCA, TLCA: 124.782)): 578.218 RLU | RLU, fluorescence trace (Time (s) 126.781 (TCA, TLCA: 126.782)): 564.916 RLU | RLU, fluorescence trace (Time (s) 128.781 (TCA, TLCA: 128.782)): 590.827 RLU | RLU, fluorescence trace (Time (s) 130.781 (TCA, TLCA: 130.782)): 571.073 RLU | RLU, fluorescence trace (Time (s) 132.781 (TCA, TLCA: 132.782)): 555.387 RLU | RLU, fluorescence trace (Time (s) 134.781 (TCA, TLCA: 134.782)): 548.858 RLU | RLU, fluorescence trace (Time (s) 136.781 (TCA, TLCA: 136.782)): 535.742 RLU | RLU, fluorescence trace (Time (s) 137.547): 524.559 RLU | RLU, fluorescence trace (Time (s) 143.547): 525.352 RLU | RLU, fluorescence trace (Time (s) 149.547): 486.955 RLU | RLU, fluorescence trace (Time (s) 155.547): 493.52 RLU | RLU, fluorescence trace (Time (s) 161.547): 446.448 RLU | RLU, fluorescence trace (Time (s) 167.547): 435.019 RLU | RLU, fluorescence trace (Time (s) 173.547): 386.716 RLU | RLU, fluorescence trace (Time (s) 179.547): 393.434 RLU | RLU, fluorescence trace (Time (s) 185.547): 372.463 RLU | RLU, fluorescence trace (Time (s) 191.547): 357.243 RLU | RLU, fluorescence trace (Time (s) 197.547): 314.74 RLU | RLU, fluorescence trace (Time (s) 203.547): 318.63 RLU | RLU, fluorescence trace (Time (s) 209.547): 306.856 RLU | RLU, fluorescence trace (Time (s) 215.547): 260.931 RLU | RLU, fluorescence trace (Time (s) 221.547): 241.962 RLU | RLU, fluorescence trace (Time (s) 227.547): 290.972 RLU | RLU, fluorescence trace (Time (s) 233.547): 269.304 RLU | RLU, fluorescence trace (Time (s) 239.547): 267.596 RLU | RLU, fluorescence trace (Time (s) 245.547): 219.689 RLU | RLU, fluorescence trace (Time (s) 293.547): 189.99 RLU | RLU, fluorescence trace (Time (s) 299.547): 175.107 RLU | RLU, fluorescence trace (Time (s) 305.547): 192.603 RLU | RLU, fluorescence trace (Time (s) 311.547): 188.074 RLU | RLU, fluorescence trace (Time (s) 317.547): 199.388 RLU | RLU, fluorescence trace (Time (s) 323.547): 170.101 RLU | RLU, fluorescence trace (Time (s) 329.547): 196.926 RLU | RLU, fluorescence trace (Time (s) 335.547): 162.738 RLU | RLU, fluorescence trace (Time (s) 341.547): 164.861 RLU | RLU, fluorescence trace (Time (s) 347.547): 156.987 RLU | RLU, fluorescence trace (Time (s) 353.547): 175.115 RLU | RLU, fluorescence trace (Time (s) 359.547): 151.684 RLU | Activation threshold concentration TAS2R4 (lowest concentration with significantly increased fluorescence vs empty vector (p < 0.01)): 100 µM
